Entries after “also recorded” stand apart in the source; their conditions may differ.
What was measured:
[1] = test system: p21^WAF1 protein in MCF-7 cells; test: Induction of p21^WAF1 protein in MCF-7 cells (immunoblotting); format: cell-based, human
Method: (§1) (a) DO-1, DO-2 and 1801 monoclonal antibodies recognise the N-terminal region of p53 protein, monoclonal antibodies DO-11 and DO-12 recognise different epitopes in the core domain of p53 protein, monoclonal antibodies Bp53-10 and Pab421 recognise the C-terminal region of p53 protein. (b) Monoclonal antibody 118 recognises p21^WAF1.
For direct immunoblotting, total cellular protein lysates were prepared by harvesting cells in hot Laemmli electrophoresis sample buffer. Proteins were then separated by SDS-polyacrylamide gel electrophoresis (SDS-PAGE) on 10% gel and transferred onto a nitrocellulose membrane in Bio.Rad Mini Trans-Blott Electrophoretic Transfer Cell for 2 hrs at 4° C. applying 150 mA in transfer buffer ([…], 190 mM glycine and 20% methanol). Prestained molecular weight markers (Bio-Rad) were run in parallel. The blotted membranes were blocked in 5% milk and 0.1% Tween 20 in PBS for 2 hrs and probed overnight with monoclonal antibodies. After washing 3 times in PBS plus 0.1% Tween 20, peroxidase conjugated rabbit anti-mouse immunoglobulin antiserum (Dako, Denmark) diluted 1:1000 was used as the secondary antibody. To visualise peroxidase activity, ECL reagents from […] were used according to the manufacturer instructions.
MCF7-DDp53 cell line was derived from MCF-7 parental cell line by stable […] with plasmid pCMVneonDDp53 coding for dominant negative truncated mouse p53 protein including amino acid residues 1-14 and 302-390 under the control of at the CMV promoter. The control cell line MCF-7neo was derived by transfecting MCF-7 cells with pCMVneo vector. Transfections were performed using the Effectene transfection reagent (QIAGEN, Germany) as recommended by the supplier. Stable transfectants were selected at 2 mg/ml G418 sulphate (Life Technologies). The expression of Ddp53 miniprotein in MCF-7Ddp53 cell line has been examined by immunoblotting with Bp53-10 monoclonal antibody. Independently isolated MCF-7Dp53 clones 9, 12 and 14 expressing high levels of Ddp53 miniprotein and MCF-7-neo clones 3, 4 and 7 were used. […]

[2] = test system: p53 protein in BT549 (mut p53) breast cancer cell line; test: p53 protein expression in BT549 cells (immunoblotting); format: cell-based, human; settings: BT549 (mutant p53), 5 μM, 6, 12 and 24 hrs
Method: as §1
For direct immunoblotting, total cellular protein lysates were prepared by harvesting cells in hot Laemmli electrophoresis sample buffer. Proteins were then separated by SDS-polyacrylamide gel electrophoresis (SDS-PAGE) on 10% gel and transferred onto a nitrocellulose membrane in Bio.Rad Mini Trans-Blott Electrophoretic Transfer Cell for 2 hrs at 4° C. applying 150 mA in transfer buffer ([…], 190 mM glycine and 20% methanol). Prestained molecular weight markers (Bio-Rad) were run in parallel. […]
First, we determined appropriate concentration of 103 and 105 for our experiments. The MCF-7 (wt p53) cells were treated for 12 hrs with increasing concentrations of 105 ranging from 1 to 100 μM and analysed for p53 protein expression using monoclonal antibody DO-1 (FIG. 3A). […] We analysed the expression of p53 protein in MCF-7 (wt p53), BT549 (mut p53) and BT474 (mut p53) breast cancer cell lines, in HT29 (mut p53) colorectal cancer cell line and in ostaosarcoma cell line HOS (mut p53). […]

HSV-2 = test: Plaque number reduction assay, HSV-2 on HFFF; format: cell-based, HSV-2 strain HG52
VV = format: cell-based, Vaccinia virus strain WR; settings: Vaccinia virus on HFFF
HAd4 = test: Plaque number reduction assay, HAd4 on A549; format: cell-based, Human adenovirus type 4 (HAdV-4) strain RI-6
HCMV = test: Plaque number reduction assay, HCMV on HFFF; format: cell-based, Human cytomegalovirus strain Toledo
IV = format: cell-based, Influenza Virus H1N1 strain A/PR/8/34; settings: MDCK cells
SV40 large T-antigen = format: cell-based
[3] = test system: SV40 large T-antigen in COS-1 cells; test: Expression from SV40 promoter incorporated in the cellular genome (COS-1 cells); format: cell-based; settings: COS-1 cells (FIG. 10)
Method: Cell were detached with rubber policeman and washed three times with ice-cold PBS and lysed in buffer (50 mM Tris, pH 7.4, 250 mM NaCl, 5 mM EDTA, 50 mM NaF, 1 mM Na3VO4, 1% Nonidet P40) containing mixture of protease and phosphatase inhibitors (Sigma-Aldrich St Louis, Mo., USA). 20 μg of total proteins were separated by SDS-polyacrylamide gel electrophoresis (SDS-PAGE) on 8% or 10% gels and transferred onto nitrocellulose membranes. Membranes were blocked in 5% milk and 0.1% Tween 20 in PBS and probed overnight with specific monoclonal antibodies or rabbit polyclonal sera. Primary antibodies specific for RNA polymerase II (all from Santa Cruz Biotechnology, California, USA) included: (i) N-20 used at […] (ii) H14, specific for form phosphorylated at phosphoserine 5, used at 6 μg/ml and (iii) H5, specific for form phosphorylated at phosphoserine 2 used at 4 μg/ml. Additional primary mAb used in immunblots included (iv) anti-p53 (D0-1, in house, […]) used at 1 μg/ml, (v) anti-p21^WAF1 (118, in house), used at 1 μg/ml), (vi) anti-actin (A-2066, Sigma-Aldrich St Louis, Mo., USA) used at 1 μg/ml, (vii) anti-T-antigen (419, in house, Lane), used at 1 μg/ml. All primary antibodies were diluted in PBS containing 5% powdered milk; 0.1% Tween 20. […]

[4] = test system: p53-responsive reporter pRGCΔfoslacZ in human melanoma cell line Arn8; test: p53-dependent transcriptional activity, β-galactosidase reporter in Arn8 cells

CCC(CO)Nc1nc(NCc2ccccc2N)c2ncn(C(C)C)c2n1 (centres unmarked) [Compound 105, 2-({6-[(2-aminobenzyl)amino]-9-isopropyl-9H-purin-2-yl}amino)butan-1-ol]
p21^WAF1 level ([1]; MCF7 cells treated for 24 h, immunoblot (FIG. 2)): Induction
p21^WAF1 induction ([1]; MCF-7Ddp53 clones (dominant-negative Ddp53 miniprotein)): no p21^WAF1 induction
time at which enhanced level of p21^WAF1 protein was observed ([1]; MCF-7 cells): 12 h
induction of p53 [2]: No induction
inhibition of virus replication (in words) (HSV-2): inhibited replication
inhibition of virus replication (in words) (VV): inhibited equally well
inhibition of virus replication (in words) (HAd4): inhibited HAd4 replication; also recorded: profound effect
inhibition of virus replication (in words) (HCMV): equally sensitive
inhibition of virus replication (in words) (IV): ineffective
level of large T-antigen (SV40 large T-antigen): reduced level
large T-antigen expression [3]: stimulated large T-antigen expression
blue-coloured cells (β-galactosidase activity, X-gal substrate) ([4]; Arn8 cells, 5 μM): about 25%
total β-galactosidase activity, colorimetric assay ([4]; Arn8 cells, 12 and 24 hours after treatment): strong activity
Max. β-Gal. Activtity Conc. ([4]; concentration inducing maximum of β-galactosidase activity (p53-responsive reporter)): 16 µM

From US9023857B2, “Substituted 6-(2-aminobenzylamino)purine derivatives, their use as medicaments and preparations containing these compounds” (Univerzita Palackeho V Olomouci, priority 2009, dated 2015)
